One data set relates to MDA-MB-231. The data set can be described thus: MTS assay, MDA-MB-231. The data set is classed as cell-based. The settings on record: Homo sapiens, MDA-MB-231, 72 h. Here is the method: (§1) Cells were maintained at 37° C., 5% CO2 in RPMI media supplemented with 1% fetal bovine serum, penicillin/streptomycin and fungizone (Invitrogen). Cells were seeded into 96-well tissue culture plates at 3000 per well and cultured at 37° C. for 18 h. Test compounds were dissolved and diluted to 300× in DMSO then diluted 1:40 in DMEM. Cells were incubated with test compounds for 72 hours followed by incubation with tetrazolium compound (3-(4,5-dimethylthiazol-2-yl)-5-(3-carboxymethoxyphenyl)-2-(4-sulfophenyl)-2H-tetrazolium, inner salt; MTS) and the electron coupling reagent, phenazine methosulfate (PMS) for 4 hours. […] The ability of compounds to inhibit cell growth in this assay is correlated with the reduction of dehydrogenase enzyme activity found in metabolically active cells. The measurement of the absorbance of the formazan was assessed using an ENVISION™ (Perkin Elmer) microplate reader at 492 nm. The calculated IC50 value is the concentration of the test compound that causes a 50% decrease in the absorbance.
In general terms: Tetrazolium assays rely on reduction of a dye to a coloured formazan, in cell work by metabolically active cells.

The next data set concerns DLD-1. The data set can be described thus: MTS assay, DLD-1. The class given is cell-based. The conditions noted are these: Homo sapiens, DLD-1, 72 h. Here is the method:
as §1

The target of a further data set is Abl (T315I) (Homo sapiens, UniProt P00519, T315I). The data set can be described thus: Abl kinase activity assay (fluorescent ELISA, AblTide substrate). The class given is biochemical. The protocol:
The disclosed compounds were assayed for their ability to inhibit the activity of ABL kinase. Nunc Maxisorb plates are coated with streptavidin by overnight incubation with 100 μL per well of 1 μg/mL streptavidin in DPBS. Prior to the start of the experiment, the plates are washed with TBST (3×200 μL) and blocked for at least 3 hours by adding 150 μL of 5% BSA/TBST. The plates are washed with TBST (3×200 μL/well) and left dry immediately before the capture step.
The test articles and controls (Gleevec) are prepared using the following assay buffer @ 10× desired final concentration (50 mM Tris pH 7.0, 0.02 mg/ml BSA, 10 mM MgCl2, 0.1 mM Na3VO4, 1 mM EGTA, 0.01% NP-40, 1 mM DTT in 10% glycerol/water). In a reaction plate are added rapidly 5 μL test article (or control) and 30 μL ABL or ABL T315I (0.089 nM final concentration, in the above buffer). The plate is incubated for 20 minutes. To the reaction plate is added ATP (100 μM final concentration) and AblTide (128 nM final concentration) in a volume of 15 μL. The plate is incubated at room temperature for one hour.
From the reaction plate, 40 μL is transferred to the streptavidin coated plate. The capture plate is incubated at room temperature for 30 minutes then washed 3× with TBST. To the capture plate is added 100 μL/well of Cell Signaling anti-phospho tyrosine at a dilution of 1:3000 in 2% BSA/TBST. The plate is incubated for two hours at room temperature then washed 3× with TBST. To the capture plate is added 100 μL/well of Alkaline Phosphatase Tagged Goat anti Mouse Antibody at a dilution of 1:4000 in 2% BSA/TBST. The plate is incubated for one hour at room temperature then washed 3× with TBST.
The fluorescent readout was initiated by the addition of 100 μL/well of Attophos reagent (6 mg/10 mL). The reading was done on the Perkin Elmer Envision system.
Background: ELISA stands for enzyme-linked immunosorbent assay.

The target in another data set is T1, FGFR2 (N549H) (Homo sapiens, UniProt P21802, N549H).
T1 construct: purchased Millipore 14-742
T1 sequence (P21802 22-821 N549H): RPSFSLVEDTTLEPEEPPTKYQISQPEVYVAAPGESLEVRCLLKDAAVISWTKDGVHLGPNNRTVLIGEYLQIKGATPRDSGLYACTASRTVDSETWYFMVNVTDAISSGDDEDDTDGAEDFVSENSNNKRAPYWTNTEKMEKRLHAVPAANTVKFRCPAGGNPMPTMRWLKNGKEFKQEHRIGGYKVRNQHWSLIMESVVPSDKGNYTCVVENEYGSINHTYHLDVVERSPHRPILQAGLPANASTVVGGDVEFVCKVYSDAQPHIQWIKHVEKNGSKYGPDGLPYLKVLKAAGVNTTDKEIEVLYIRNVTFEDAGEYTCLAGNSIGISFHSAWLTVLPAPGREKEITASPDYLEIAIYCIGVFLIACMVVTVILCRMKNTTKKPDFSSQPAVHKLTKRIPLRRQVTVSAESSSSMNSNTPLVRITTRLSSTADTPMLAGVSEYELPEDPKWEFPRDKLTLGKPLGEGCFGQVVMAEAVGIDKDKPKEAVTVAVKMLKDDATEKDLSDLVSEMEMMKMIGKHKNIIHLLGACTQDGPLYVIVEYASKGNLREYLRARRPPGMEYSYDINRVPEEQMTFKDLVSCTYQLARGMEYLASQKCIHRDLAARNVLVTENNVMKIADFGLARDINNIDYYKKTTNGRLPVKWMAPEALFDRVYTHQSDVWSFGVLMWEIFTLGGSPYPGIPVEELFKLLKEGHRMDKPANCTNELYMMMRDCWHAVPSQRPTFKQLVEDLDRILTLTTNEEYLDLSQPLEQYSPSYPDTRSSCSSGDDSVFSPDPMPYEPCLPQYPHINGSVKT
The data set can be described thus: FGFR2 kinase activity assay (fluorescent ELISA). The data set is classed as biochemical. Here is the method: The enzymatic assays described herein are conducted according to the following procedures from commercially available reagents. In one, non limiting, example, a fluorescent ELISA assay is used to identify and characterize inhibitors of FGFR2 kinase as described herein. This heterogeneous assay utilizes a biotinylated peptide with a tyrosine motif as a substrate and an anti-phospho-tyrosine antibody to measure phosphorylation of the substrate. The reaction is initiated by adding the test compound, 37 μM Pyk2 substrate (Midwest Biotech, Cat. # MBT2383), 12.5 μM ATP (Roche, Cat. #11 140 965 001) and 0.5 μM FGFR2 enzyme (Millipore, Cat. #14-742) sequentially to a non-binding polypropylene V-well plate. All reagents are in an assay buffer consisting of: 50 mM Tris-HCL, 0.02 mg/ml BSA, 10 mM MgCl2, 0.1 mM Na3VO4, 1 mM EGTA, 75 μM ATP, 0.01% NP-40, 2 mM DTT and 10% glycerol. The reaction is incubated for 60 minutes. As the reaction proceeds, FGFR2 phosphorylates tyrosines in the peptide. The reaction mixture is then moved to a blocked streptavidin-coated Nunc Maxisorb plate (coated with 100 ng streptavidin from Pierce (Cat. #15-124) per well), allowing for the capture of the biotinylated peptide. Peptides are captured for 30 minutes at room temperature, the phosphorylation of peptides continues during this phase. The reaction is stopped by washing the streptavidin-coated plate 6 times with TBST. Phosphorylated peptide is detected by adding anti-phospho-tyrosine antibody (Cell Signaling, Cat. #9411, diluted 1:3000) to the streptavidin-coated plate. Unbound anti-phospho-tyrosine antibody is removed by washing the streptavidin-coated plate 6 times with TBST. Secondary detection is performed using alkaline phosphatase tagged goat anti-mouse antibody (Pierce, Cat. #31320, diluted 1:4000) for one hour. Unbound secondary antibody is removed by washing the streptavidin-coated plate 6 times with TBST. The fluorescent readout is initiated by adding to the streptavidin-coated plate Promega Attophos substrate (Promega, Cat. # S1000, dilution=6 mg/10 ml), which, when dephosphorylated by alkaline phosphatase, emits a fluorescent signal of 595 nm in wavelength when excited by a signal of 400 nm in wavelength. The reading of the 595 nm signal is done on the Perkin Elmer Envision system. Compounds which prevent FGFR2 from phosphorylating the peptide result in a lower fluorescent signal. The 595 nm fluorescent signal is directly proportional to the activity of FGFR2. Thus, the inhibition of FGFR2 by compounds is monitored by the decrease in the 595 nm fluorescent signal.

Structures can show the parent of a compound that is named as a salt.

For orientation: melting point means the temperature of the solid-liquid transition. Turning to `Cl.c1cc2c3c(c1)c(-c1ccnc(NCC4CCNCC4)n1)cn3CCC2`, the melting point is 192 to 194 °C.

A word on the inhibition: it is the drop in the measured response relative to a control, in per cent. Turning to `Cc1ccc(-c2[nH][nH]c(=O)c2-c2cn3c4c(cccc24)CCC3)cc1` [Compound 16, 4-(5,6-dihydro-4H-pyrrolo[3,2,1-ij]quinolin-1-yl)-5-(4-methylphenyl)-1,2-dihydro-3H-pyrazol-3-one], the inhibition at 10 µM was 63% in the data set on MDA-MB-231, 78% in the data set with DLD-1 and 83% against Abl (T315I).

Regarding `O=c1[nH][nH]c(-c2ccc3ccccc3c2)c1-c1cn2c3c(cccc13)CCC2` [Compound 13, 4-(5,6-dihydro-4H-pyrrolo[3,2,1-ij]quinolin-1-yl)-5-(2-naphthyl)-1,2-dihydro-3H-pyrazol-3-one], the inhibition at 10 µM with MDA-MB-231 worked out at 46%; in the data set on DLD-1, 61%; on Abl (T315I), 37%. For the same compound, at FGFR2 (N549H), at 30 µM the inhibition was 94%.

`O=c1[nH][nH]c(-c2ccc(Cl)cc2)c1-c1cn2c3c(cccc13)CCC2` [Compound 11, 5-(4-chlorophenyl)-4-(5,6-dihydro-4H-pyrrolo[3,2,1-ij]quinolin-1-yl)-1,2-dihydro-3H-pyrazol-3-one]: the inhibition at 10 µM worked out at 97% with MDA-MB-231, 97% in the data set on DLD-1 and 13% on Abl (T315I).

Consider `CCOC(=O)CNC(=O)N1CCC(CNc2nccc(-c3cn4c5c(cccc35)CCC4)n2)CC1` (as salt: trifluoroacetate) [Compound 34, ethyl 2-(4-((4-(5,6-dihydro-4H-pyrrolo[3,2,1-ij]quinolin-1-yl)pyrimidin-2-ylamino)methyl)piperidine-1-carboxamido)acetate], for which the melting point was 170 to 172 °C.

With `O=c1[nH][nH]c(-c2cc3ccccc3s2)c1-c1cn2c3c(cccc13)CCC2` [Compound 12, 5-(1-benzothien-2-yl)-4-(5,6-dihydro-4H-pyrrolo[3,2,1-ij]quinolin-1-yl)-1,2-dihydro-3H-pyrazol-3-one], the inhibition at 10 µM with MDA-MB-231 came out at 90%; in the data set with DLD-1, 87%; on Abl (T315I), 53%.

The compound `O=S(=O)(c1ccc(Cl)cc1)N1CCC(CNc2nccc(-c3cn4c5c(cccc35)CCC4)n2)CC1` (as salt: trifluoroacetate) [Compound 35, N-((1-(4-chlorophenylsulfonyl)piperidin-4-yl)methyl)-4-(5,6-dihydro-4H-pyrrolo[3,2,1-ij]quinolin-1-yl)pyrimidin-2-amine] came in with a melting point of 140 to 142 °C.

Take `O=c1[nH][nH]c(-c2ccccc2)c1-c1cn2c3c(cccc13)CCC2` [Compound 10, 4-(5,6-dihydro-4H-pyrrolo[3,2,1-ij]quinolin-1-yl)-5-phenyl-1,2-dihydro-3H-pyrazol-3-one]: the inhibition at 10 µM in the data set on MDA-MB-231 turned out to be 37%; in the data set on DLD-1 it was 46%; at Abl (T315I) it was 25%.

`CC(C)(C)C(=O)N1CCC(CNc2nccc(-c3cn4c5c(cccc35)CCC4)n2)CC1` (as salt: trifluoroacetate) [Compound 36, 1-(4-((4-(5,6-dihydro-4H-pyrrolo[3,2,1-ij]quinolin-1-yl)pyrimidin-2-ylamino)methyl)piperidin-1-yl)-2,2-dimethylpropan-1-one] showed a melting point of 170 to 172 °C.

Compound `Cl.c1cc2c3c(c1)c(-c1nnnn1C1CCNCC1)cn3CCC2` registered a melting point of 198 to 200 °C.
